≈ marks a conversion by molar mass, not a printed value.
Tests used:
[1] = tested on: WS-1 cell lines; test: Cytotoxicity assay on WS-1 (Example 2); assay type: cell-based; set-up: unit not given here; conditions: Table 7; WS-1, 48 h
Experimental: Cytotoxicity assay. […] The WS-1 cell lines were provided by ATCC. […] The compounds tested were then added at 8 different concentrations. […] In Table 7, the therapeutic indexes of compounds IV to XXI are presented.

[2] = tested on: S. aureus wild type strain (ATCC 25923); test: Antibiotic assay (absorption 660 nm, Example 2), S. aureus wild type; assay type: cell-based, Staphylococcus aureus; conditions: for MIC: S. aureus WT (ATCC 25923); for S. aureus WT ATCC 25923 (toxicity on bacteria): Table 7, same values as MIC of Table 6
Experimental: (§1) Antibiotic agents. Gentamicin sulfate was provided by Calbiochem. Chloramphenicol was provided by Sigma-Aldrich.
(§2) Antibiotic assay. […] The bacteria strains were inoculated in nutrients broth. […] All bacteria were plated in nutrients broth at a concentration of 450 000 bacteria/m L.
(§3) Compounds IV to XXI were diluted in dimethylsulfoxide. […] The compounds were tested at 8 different concentrations.
(§4) Each well contained: 100 μL of bacteria, 100 μL of the compounds tested. The plates were incubated at 37° C. for 6 h. The absorption was read using a Varioskan flash multimode Reader™ (Thermo Scientific) at 660 nm.
(§5) MRSA. Ten (10) strains of MRSA obtained as described above were tested along with an S. aureus wild type (WT) strain (ATCC 25923).

[3] = tested on: MRSA strains; test: Antibiotic assay (absorption 660 nm, Example 2), MRSA strains; assay type: cell-based, Staphylococcus aureus
Experimental: as §1, §2, §3, §4, §5

Structure (SMILES)	WS-1 (toxicity on normal cells, fibroblast) [1]	MIC [2] [µM]	S. aureus WT ATCC 25923 (toxicity on bacteria) [2]	MIC ([3]; MRSA 1) [µM]	MIC ([3]; MRSA 2) [µM]	MIC ([3]; MRSA 3) [µM]	MIC ([3]; MRSA 4) [µM]	MIC ([3]; MRSA 5) [µM]	MIC ([3]; MRSA 6) [µM]	MIC ([3]; MRSA 7) [µM]	MIC ([3]; MRSA 8) [µM]	MIC ([3]; MRSA 9) [µM]	MIC ([3]; MRSA 10) [µM]
O=C(CCc1ccccc1)c1c(O)cc(O)c2c1OC(c1ccc(O)cc1)CC2 (racemic) [IV]	16 ± 2	1.27 ± 0.06 (≈ 0.496 µg/mL)	1.27 ± 0.06	0.84 ± 0.04 (≈ 0.328 µg/mL)	1.50 ± 0.06 (≈ 0.586 µg/mL)	1.02 ± 0.06 (≈ 0.398 µg/mL)	2.6 ± 0.2 (≈ 1.02 µg/mL)	0.95 ± 0.01 (≈ 0.371 µg/mL)	2.11 ± 0.07 (≈ 0.824 µg/mL)	1.22 ± 0.04 (≈ 0.476 µg/mL)	1.35 ± 0.05 (≈ 0.527 µg/mL)	1.32 ± 0.04 (≈ 0.515 µg/mL)	1.23 ± 0.08 (≈ 0.48 µg/mL)
COc1ccc(CCC(=O)c2c(O)cc(O)c3c2OC(c2ccc(O)cc2)CC3)cc1 (racemic) [VII]	26	2.2 ± 0.2 (≈ 0.925 µg/mL)	2.2 ± 0.2	2.9 ± 0.1 (≈ 1.22 µg/mL)	2.5 ± 0.1 (≈ 1.05 µg/mL)	1.7 ± 0.1 (≈ 0.715 µg/mL)	2.4 ± 0.2 (≈ 1.01 µg/mL)	2.0 ± 0.1 (≈ 0.841 µg/mL)	2.7 ± 0.1 (≈ 1.14 µg/mL)	2.13 ± 0.02 (≈ 0.896 µg/mL)	2.2 ± 0.5 (≈ 0.925 µg/mL)	2.5 ± 0.2 (≈ 1.05 µg/mL)	1.2 ± 0.2 (≈ 0.505 µg/mL)
O=C(CCc1ccccc1)c1c(O)cc2c(c1O)CC(O)C(c1ccc(O)cc1)O2 (racemic) [XIII]	10.1 ± 0.8	3.2 ± 0.2 (≈ 1.3 µg/mL)	3.2 ± 0.2	2.9 ± 0.2 (≈ 1.18 µg/mL)	2.7 ± 0.1 (≈ 1.1 µg/mL)	7.8 ± 0.5 (≈ 3.17 µg/mL)	6.8 ± 0.7 (≈ 2.76 µg/mL)	2.7 ± 0.3 (≈ 1.1 µg/mL)	5.4 ± 0.4 (≈ 2.19 µg/mL)	2.0 ± 0.2 (≈ 0.813 µg/mL)	3.4 ± 0.3 (≈ 1.38 µg/mL)	2.9 ± 0.1 (≈ 1.18 µg/mL)	4.2 ± 0.8 (≈ 1.71 µg/mL)
COc1ccc(CCC(=O)c2c(O)cc(O)c3c2OC(c2ccc(O)cc2)C(O)C3)cc1 (racemic) [XIX]	8.2 ± 1.0	2.5 ± 0.1 (≈ 1.09 µg/mL)	2.5 ± 0.1	2.6 ± 0.1 (≈ 1.13 µg/mL)	2.4 ± 0.1 (≈ 1.05 µg/mL)	4.3 ± 0.4 (≈ 1.88 µg/mL)	2.9 ± 0.6 (≈ 1.27 µg/mL)	3.1 ± 0.6 (≈ 1.35 µg/mL)	2.8 ± 0.2 (≈ 1.22 µg/mL)	2.6 ± 0.1 (≈ 1.13 µg/mL)	2.7 ± 0.2 (≈ 1.18 µg/mL)	3.0 ± 0.3 (≈ 1.31 µg/mL)	2.56 ± 0.04 (≈ 1.12 µg/mL)
O=C(CCc1ccccc1)c1c(O)cc(O)c2c1OC(c1ccc(O)cc1)C(O)C2 (racemic) [XVI]	>50	5.9 ± 0.3 (≈ 2.4 µg/mL)	5.9 ± 0.3	5.6 ± 0.5 (≈ 2.28 µg/mL)	4.7 ± 0.4 (≈ 1.91 µg/mL)	5.1 ± 0.3 (≈ 2.07 µg/mL)	5.7 ± 0.4 (≈ 2.32 µg/mL)	4.1 ± 0.6 (≈ 1.67 µg/mL)	5.4 ± 0.7 (≈ 2.19 µg/mL)	3.5 ± 0.3 (≈ 1.42 µg/mL)	5.3 ± 0.6 (≈ 2.15 µg/mL)	4.8 ± 0.2 (≈ 1.95 µg/mL)	3.3 ± 0.1 (≈ 1.34 µg/mL)
COc1cc(O)c(C(=O)CCc2ccc(O)cc2)c2c1CCC(c1ccc(O)cc1)O2 (racemic) [X]	16 ± 4	5.3 ± 0.6 (≈ 2.23 µg/mL)	5.3 ± 0.6	5.2 ± 0.4 (≈ 2.19 µg/mL)	5.7 ± 0.4 (≈ 2.4 µg/mL)	4 (≈ 1.68 µg/mL)	3 (≈ 1.26 µg/mL)	4 ± 2 (≈ 1.68 µg/mL)	9 ± 1 (≈ 3.78 µg/mL)	5.3 ± 0.2 (≈ 2.23 µg/mL)	–	5.3 ± 0.4 (≈ 2.23 µg/mL)	5.6 ± 0.5 (≈ 2.35 µg/mL)
COc1ccc(CCC(=O)c2c(O)cc(O)c3c2O[C@@H](c2ccc(O)cc2)CC3)cc1 [IX]	>50	8.0 ± 0.3 (≈ 3.36 µg/mL)	8.0 ± 0.3	7.7 ± 0.3 (≈ 3.24 µg/mL)	9 ± 1 (≈ 3.78 µg/mL)	6.25 ± 0.06 (≈ 2.63 µg/mL)	6.7 ± 0.2 (≈ 2.82 µg/mL)	6.9 ± 0.4 (≈ 2.9 µg/mL)	7.1 ± 0.9 (≈ 2.99 µg/mL)	5.2 ± 0.4 (≈ 2.19 µg/mL)	4.9 ± 0.2 (≈ 2.06 µg/mL)	3.7 ± 0.2 (≈ 1.56 µg/mL)	7.5 ± 0.7 (≈ 3.15 µg/mL)
COc1ccc(CCC(=O)c2c(O)cc(O)c3c2O[C@H](c2ccc(O)cc2)CC3)cc1 [VIII]	>50	>50	>50	>50	>50	>50	>50	>50	>50	>50	>50	>50	>50
